According to patent publication US12077503B2, “Substituted cyclic amides and their use as herbicides” (FMC CORPORATION, priority 2015, dated 2024):

Tests used:
Format in all cases: in vivo
Kochia (Kochia scoparia) [1] = experiment: Test A preemergence
Procedure, shortened: (§1)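 Preemergence soil spray on seeded pots or post-emergence spray on 1–2 leaf plants, in loam–sand blend. Greenhouse ~10 d. Visual rating 0–100 against untreated plants.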

[2] = test system: barnyardgrass (Echinochloa crus-galli); experiment: Test A preemergence
Procedure, shortened: as §1

[3] = test system: giant foxtail (Setaria faberii); experiment: Test A preemergence
Procedure, shortened: as §1

[4] = test system: pigweed (Amaranthus retroflexus); experiment: Test A preemergence
[5] = test system: ragweed (common ragweed, Ambrosia elatior); experiment: Test A preemergence
Procedure, shortened: as §1

[6] = test system: ryegrass, Italian (Italian ryegrass, Lolium multiflorum); experiment: Test A preemergence
Procedure, shortened: as §1

[7] = test system: Galium (catchweed bedstraw, Galium aparine); experiment: Test A postemergence; settings: postemergence, 0 to 100 scale (0 no effect, 100 complete control)
Procedure, shortened: as §1

Kochia (Kochia scoparia) [8] = experiment: Test A postemergence; settings: postemergence, 0 to 100 scale (0 no effect, 100 complete control)
Procedure, shortened: as §1

[9] = test system: barnyardgrass (Echinochloa crus-galli); experiment: Test A postemergence
Procedure, shortened: as §1

[10] = test system: blackgrass (Alopecurus myosuroides); experiment: Test A postemergence
Procedure, shortened: as §1

corn (Zea mays) = experiment: Test A postemergence
Procedure, shortened: as §1

[11] = test system: giant foxtail (Setaria faberii); experiment: Test A postemergence; settings: postemergence, 0 to 100 scale (0 no effect, 100 complete control)
Procedure, shortened: as §1

[12] = test system: pigweed (Amaranthus retroflexus); experiment: Test A postemergence; settings: postemergence, 0 to 100 scale (0 no effect, 100 complete control)
Procedure, shortened: as §1

[13] = test system: ragweed (common ragweed, Ambrosia elatior); experiment: Test A postemergence; settings: postemergence, 0 to 100 scale (0 no effect, 100 complete control)
Procedure, shortened: as §1

[14] = test system: ryegrass, Italian (Italian ryegrass, Lolium multiflorum); experiment: Test A postemergence; settings: postemergence, 0 to 100 scale (0 no effect, 100 complete control)
Procedure, shortened: as §1

[15] = test system: wheat (Triticum aestivum); experiment: Test A postemergence; settings: postemergence, 0 to 100 scale (0 no effect, 100 complete control)
Procedure, shortened: as §1

[16] = test system: barnyardgrass (Echinochloa crus-galli); experiment: Test B flooded paddy test; settings: Flood, 500 g ai/ha; 0 to 100 scale where 0 is no effect and 100 is complete control; 13 to 15 d
Procedure, shortened: (§2)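 Percent control, visually estimated after 13–15 d in the greenhouse on a 0–100 basis, compares treated pots with untreated ones; compound was put into paddy water 3 cm above the soil when plants had two leaves.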

[17] = test system: ducksalad (Heteranthera limosa); experiment: Test B flooded paddy test; settings: Flood, 500 g ai/ha; 0 to 100 scale where 0 is no effect and 100 is complete control; 13 to 15 d
Procedure, shortened: as §2

rice (Oryra sativa) = experiment: Test B flooded paddy test; settings: Flood, 500 g ai/ha; 0 to 100 scale where 0 is no effect and 100 is complete control; 13 to 15 d
Procedure, shortened: as §2

[18] = test system: sedge, umbrella (small-flower umbrella sedge, Cyperus difformis); experiment: Test B flooded paddy test; settings: Flood, 500 g ai/ha; 0 to 100 scale where 0 is no effect and 100 is complete control; 13 to 15 d
Procedure, shortened: as §2

[19] = test system: waterhemp (common waterhemp, Amaranthus rudis); experiment: Test C preemergence; settings: for Plant response rating (scale of 0 to 100), Waterhemp: 31 g ai/ha, 0 is no effect, 100 is complete control; for Plant response rating, Waterhemp: scale 0 to 100, 0 no effect, 100 complete control
Description: Seeds of plant species selected from blackgrass (Alopecurus myosuroides), ryegrass, Italian (Italian ryegrass, Lolium multiflorum), wheat (winter wheat, Triticum aestivum), Galium (catchweed bedstraw, Galium aparine), corn (Zea mays), crabgrass, large (large crabgrass, Digitaria sanguinalis), foxtail, giant (giant foxtail, Setaria faberii), johnsongrass (Sorghum halepense), lambsquarters (Chenopodium album), morningglory (Ipomoea coccinea), nutsedge, yellow (yellow nutsedge, Cyperus esculentus), pigweed (Amaranthus retroflexus), ragweed (common ragweed, Ambrosia elatior), soybean (Glycine max), barnyardgrass (Echinochloa crus-galli), oilseed rape (Brassica napus), waterhemp (common waterhemp, Amaranthus rudis) and velvetleaf (Abutilon theophrasti) were planted into a blend of loam soil and sand and treated preemergence with test chemicals formulated in a non-phytotoxic solvent mixture which included a surfactant.
At the same time, plants selected from these crop and weed species and also Kochia (Kochia scoparia), oat, wild (wild oat, Avena fatua), and chickweed (common chickweed, Stellaria media) were planted in pots containing Sunshine Redi-Earth® planting medium comprising spaghnum peat moss, vermiculite, starter nutrients and dolomitic limestone and treated with postemergence applications of test chemicals formulated in the same manner. Plants ranged in height from 2 to 18 cm (1- to 4-leaf stage) for postemergence treatments. Treated plants and controls were maintained in a greenhouse for 13 to 15 d, after which time all species were compared to controls and visually evaluated. Plant response ratings, summarized in Table C, are based on a scale of 0 to 100 where 0 is no effect and 100 is complete control. A dash (-) response means no test result.

[20] = 125 g ai/ha, Preemergence, visual injury after approximately 10 d, 0 to 100 scale where 0 is no effect and 100 is complete control
[21] = 500 g ai/ha, preemergence, 0 to 100 scale, 0 = no effect, 100 = complete control
[22] = 125 g ai/ha, visual rating after approx. 10 d
[23] = 500 g ai/ha, visual injury, approx. 10 d
[24] = 125 g ai/ha, postemergence, visual rating after approx. 10 d, 0 to 100 scale (0 no effect, 100 complete control)
[25] = Postemergence, 500 g ai/ha, 0 to 100 scale where 0 is no effect and 100 is complete control
[26] = 125 g ai/ha, preemergence, visual rating after approx. 10 d, 0 to 100 scale where 0 is no effect and 100 is complete control
[27] = 125 g ai/ha, visual injury after approximately 10 d
[28] = 125 g ai/ha, postemergence, visual injury after approximately 10 d, 0 to 100 scale (0 no effect, 100 complete control)
[29] = 500 g ai/ha, postemergence, visual injury, 0 to 100 scale (0 no effect, 100 complete control), approx. 10 d

Compound	Plant response rating, Kochia (Kochia (Kochia scoparia) [1]; [21])	Plant response rating, Barnyardgrass [2, 21]	Plant response rating, Foxtail, Giant [3, 21]	Plant response rating, Pigweed [4, 21]	Plant response rating, Ragweed [5, 21]	Plant response rating, Ryegrass, Italian [6, 21]	Plant response rating, Galium [7, 23]	Plant response rating, Kochia (Kochia (Kochia scoparia) [8]; [23])	Plant response rating, Foxtail, Giant [11, 23]	Plant response rating, Pigweed [12, 23]	Plant response rating, Ragweed [13, 23]	Plant response rating, Ryegrass, Italian [14, 23]	Plant response rating, Wheat [15, 23]	Plant response rating, Barnyardgrass [16]	Plant response rating, Ducksalad [17]	Plant response rating, Rice (rice (Oryra sativa))	Plant response rating, Sedge, Umbrella [18]	Plant response rating (scale of 0 to 100), Waterhemp [19]	Plant response rating, Waterhemp ([19]; 62 g ai/ha)	Plant response rating, Waterhemp ([19]; 125 g ai/ha)	other results
O=C1NCC(c2ccc3c(c2)OC(F)(F)O3)C1C(=O)Nc1cccc(F)c1F (centres unmarked) [Compound 635]	60	90	90	70	50	30	60	80	90	80	40	30	40	60	100	10	0	75	80	85	Plant response rating, Kochia (Kochia (Kochia scoparia) [1]; [20]): 60; Plant response rating, Barnyardgrass [2, 20]: 90; Plant response rating, Foxtail, Giant [3, 20]: 90; Plant response rating, Pigweed [4, 20]: 60; Plant response rating, Ragweed [5, 20]: 40; Plant response rating, Ryegrass, Italian [6, 20]: 20; Plant response rating, Galium [7, 22]: 40; Plant response rating, Kochia (Kochia (Kochia scoparia) [8]; [22]): 60; Plant response rating, Barnyardgrass [9, 24]: 80; Plant response rating, Barnyardgrass [9, 25]: 90; Plant response rating, Blackgrass [10, 24]: 40; Plant response rating, Blackgrass [10, 25]: 70; Plant response rating, Corn (corn (Zea mays); [24]): 40; Plant response rating, Corn (corn (Zea mays); [25]): 70; Plant response rating, Foxtail, Giant [11, 22]: 90; Plant response rating, Pigweed [12, 22]: 60; Plant response rating, Ragweed [13, 22]: 0; Plant response rating, Ryegrass, Italian [14, 22]: 0; Plant response rating, Wheat [15, 22]: 20; Plant response rating, Waterhemp ([19]; 250 g ai/ha): 85
O=C1NCC(c2cccc(OC(F)(F)C(F)F)c2)C1C(=O)Nc1ccc(F)c(F)c1F (racemic) [Compound 698]	40	90	90	50	50	60	50	60	80	60	40	30	40	50	90	0	0	85	85	85	Plant response rating, Kochia (Kochia (Kochia scoparia) [1]; [26]): 50; Plant response rating, Barnyardgrass [2, 26]: 80; Plant response rating, Foxtail, Giant [3, 26]: 90; Plant response rating, Pigweed [4, 26]: 50; Plant response rating, Ragweed [5, 26]: 0; Plant response rating, Ryegrass, Italian [6, 26]: 30; Plant response rating, Galium [7, 27]: 50; Plant response rating, Kochia (Kochia (Kochia scoparia) [8]; [27]): 50; Plant response rating, Barnyardgrass [9, 28]: 70; Plant response rating, Barnyardgrass [9, 29]: 80; Plant response rating, Blackgrass [10, 28]: 30; Plant response rating, Blackgrass [10, 29]: 40; Plant response rating, Corn (corn (Zea mays); [28]): 80; Plant response rating, Corn (corn (Zea mays); [29]): 80; Plant response rating, Foxtail, Giant [11, 27]: 80; Plant response rating, Pigweed [12, 27]: 40; Plant response rating, Ragweed [13, 27]: 20; Plant response rating, Ryegrass, Italian [14, 27]: 30; Plant response rating, Wheat [15, 27]: 30; Plant response rating, Waterhemp ([19]; 250 g ai/ha): 90
